Counter-ions that a name gives are not always drawn.

Here are results for six compounds from patent US7468370B2, “[1,7]naphthyridines as PDE4 inhibitors” (Novartis AG, priority 2002, dated 2008).

One data set concerns the target T1, human PDE4D (Homo sapiens, UniProt Q08499).
T1 construct: PDE4 cDNA constructs containing the coding regions of the three isoenzymes; made in house; host or cells: Sf21 (Spodoptera frugiperda) insect cells, baculovirus (Bac-To-Bac)
Briefly: PDE4 Isoenzyme Inhibition Assay (Scintillation Proximity Assay, [3H]-cAMP). The following applies: recombinant 6His-tagged human PDE4D3 expressed in Sf21 cells; 1 μM cAMP; 1% DMSO; room temperature. Type of data set: biochemical.

T1 sequence (Q08499 1-673 isoform Q08499-2): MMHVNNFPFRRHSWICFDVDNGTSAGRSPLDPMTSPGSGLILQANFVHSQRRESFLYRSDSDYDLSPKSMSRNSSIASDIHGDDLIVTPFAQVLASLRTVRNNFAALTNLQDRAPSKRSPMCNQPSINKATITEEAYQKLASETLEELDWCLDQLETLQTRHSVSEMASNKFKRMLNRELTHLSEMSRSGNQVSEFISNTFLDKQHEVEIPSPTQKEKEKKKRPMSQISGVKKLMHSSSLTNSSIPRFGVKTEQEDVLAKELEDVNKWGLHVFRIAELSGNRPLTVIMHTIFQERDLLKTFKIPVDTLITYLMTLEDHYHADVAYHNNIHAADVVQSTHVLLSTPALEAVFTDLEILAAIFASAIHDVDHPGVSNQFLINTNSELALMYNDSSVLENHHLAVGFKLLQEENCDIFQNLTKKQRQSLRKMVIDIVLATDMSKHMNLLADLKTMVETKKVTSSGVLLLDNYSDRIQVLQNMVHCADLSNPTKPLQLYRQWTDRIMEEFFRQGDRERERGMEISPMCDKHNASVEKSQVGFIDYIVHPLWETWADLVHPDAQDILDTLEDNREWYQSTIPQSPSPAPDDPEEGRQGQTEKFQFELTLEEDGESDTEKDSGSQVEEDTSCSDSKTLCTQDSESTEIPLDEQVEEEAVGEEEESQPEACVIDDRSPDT
Experimental for human PDE4D: PDE4 Expression: Sf21 cells are grown to a density of 2×10^6 cells/ml and infected with human PDE4A, PDE4B or PDE4D3 containing baculovirus to a multiplicity of infection (m.o.i.) of 1 for 72 hours. The infected cells are harvested by centrifugation at 1,400 g for 4 minutes at 4° C. and the cell pellets are frozen at −80° C. Sf21 (Spodoptera frugiperda 21) insect cells are routinely maintained at densities between 3×105 and 3×10^6 cells/ml in SF00 Serum Free Medium (Invitorgen Life Technologies). Sf21 cells (1×109) are resuspended in 100 ml cold (4° C.) Lysis Buffer (50 mM Na2HP04, 200 mM NaCl, 10 mM Imidazole). Cells are incubated on ice for 30 minutes then centrifuged at 15,000 g for 20 minutes at 4° C.
PDE4 Purification: The 6 Histidine-tagged PDE4 proteins are isolated from crude cell lysates by a batch-wise Ni-NTA purification strategy (QIAGEN). N-NTA resin is first pre-rinsed to remove ethanol preservative and equilibrated with Lysis Buffer. Cell lysate is added, (10 ml 50% Ni-NTA slurry resin per 50 ml lysate), and gently rotated on a mixer at 4° C. for 1-2 h. The sample is then centrifuged at 1,000 g for 5 minutes at 4° C. using Denley benchtop centrifuge. The supernatant is removed and the resin is washed 3 times with 50 ml ice cold Wash Buffer (50 mM Na2HP04, 300 mM NaCl and 20 mM imidazole) followed by centrifugation at 1,000 g for 5 minutes at 4° C. The 6His-tagged protein is eluted from the resin with 3×5 ml ice cold Elution Buffer (50 mM NaH2PO4, 300 mM NaCl, 250 mM imidazole) and collected by centrifugation at 1,000 g for 5 minutes at 4° C. The supernatants are then pooled before buffer exchange and concentration using a VivaScience 20 ml 5K 0.2 μM Concentrator. Samples are aliquoted and stored at −20° C.
PDE4 Assay: The assay is based on Amersham Pharmacia Biotech Scintillation Proximity Assay (SPA) technology. Enzyme is diluted with enzyme dilution buffer (10 mM Tris-HCl, pH 7.5 containing 1 mM EDTA) in order to obtain between 10-30% total substrate hydrolysis during the assay. The enzymatic reaction is started by adding 10 μl diluted enzyme to 80 μl substrate (0.1 μCi [3H]-cAMP, 1 μM cAMP) and 10 μl inhibitor solution in a 96-well microtiter plate. After 30-60 minutes incubation at room temperature the reaction is stopped by adding 50 μl PDE SPA beads (20 mg/ml). After 30 minutes the plate is centrifuged (3000 g, 10 minutes) and counted (Packard TopCount).
The concentration of DMSO is kept constant at 1% (v/v) throughout the assay. The concentration at which 50% inhibition occurs (IC50) is determined from inhibition—concentration curves in a conventional manner.

The compound `N#Cc1cccc(-c2nc(N3CCC(C(=O)[O-])CC3)cc3cccnc23)c1.[Li+]` [Example 3, 1-[8-(3-Cyano-phenyl)-[1,7]naphthyridin-6-yl]-piperidine-4-carboxylic acid, Lithium salt] returned a melting point of more than 200 °C. The IC50 on human PDE4D was determined as 3.1 nM.

`N#Cc1cccc(-c2nc(N3CCOCC3)cc3cccnc23)c1` [Example 12]: the half-inhibitory concentration (IC50) at human PDE4D worked out at 2.5 nM.

Turning to `CN1CCN(c2cc3cccnc3c(-c3cccc(C#N)c3)n2)CC1` [Example 15], the IC50 at human PDE4D stood at 10.4 nM.

As to `O=C(O)C1CCN(c2cc3cccnc3c(-c3ccc(F)c(Cl)c3)n2)CC1` [Example 39], the IC50 on human PDE4D is 8 nM.

Compound `N#Cc1cccc(-c2nc(N3CCC(O)C3)cc3cccnc23)c1` (centres unmarked) [Example 1, 3-[6-(3-Hydroxy-pyrrolidin-1-yl)-[1,7]naphthyridin-8-yl]-benzonitrile] registered a melting point of 132 to 133 °C. In addition, the IC50 on human PDE4D amounted to 1 nM.

As for `N#Cc1cccc(-c2nc(N3CCNCC3)cc3cccnc23)c1` (as salt: hydrochloride) [Example 4, 3-(6-Piperazin-1-yl-[1,7]naphthyridin-8-yl)-benzonitrile], the melting point was more than 250 °C.
